We go through nine compounds from US20240034731A1, “AZA-QUINAZOLINE COMPOUNDS AND METHODS OF USE” (Iambic Therapeutics, Inc., priority 2022, published 2024).

One assay has as its system OVCAR-3 cells. Description: Cell Growth Inhibition, OVCAR-3 (CellTiterGlo, 6 days). The assay is classed as cell-based. The conditions noted are these: Homo sapiens, 144 h, OVCAR-3, 6-day treatment. The text has this: (§1) MCF-7 and OVCAR-3 cells were used to evaluate the anti-proliferation activity of the CDK inhibitors. MCF-7 (ATCC, HTB-22) cells are epithelial cells from a patient with ER+ metastatic adenocarcinoma. OVCAR-3 (ATCC, HTB-161) cells were derived from malignant ascites of a patient with ovarian cancer and are known to have CCNE1 amplification. Both cell lines were maintained in RPMI media supplemented with 10% fetal bovine serum. For cell growth inhibition assay, CDK inhibitors in DMSO solution were dispensed with either Echo 655 (Beckman Coulter) or Tecan D300e (HP) into 384-well plates (Corning #3765) and the 384-well plates were UV-sterilized prior to the assay. The inhibitors were typically tested in the 10-10,000 nM concentration range with half-log serial dilutions. MCF-7 or OVCAR-3 (500 cells/30 μL/well) were added to each well using Multidrop Combi (ThermoFisher) using standard cassettes. The assay plates with cells were cultured at 37° C., 5% CO2 for 6 days. At the end of the 6-day treatment, 30 μL of CellTiterGlo 2.0 (Promega) was added to each well and the luminescent signal was read using CLARIOstar plus (BMG). The percentage of cell growth inhibition (% CGI) was calculated using the following formula 00 CGI=100-100×luminescencesampie/luminescencecontroi. The half maximal inhibitory concentration (IC50) was determined by nonlinear curve fitting (four parameters, variable slope).
(In general: In ATP-based viability assays light output follows the ATP content of the culture.)

A further assay has as its target CDK6/Cyclin D3 (Homo sapiens (Human), UniProt Q00534). Description: CDK6/Cyclin D3 ADP-Glo Kinase Assay. The assay is classed as biochemical. Particulars: 100 uM ATP, read-out: CDK6/ CyclinD3 IC50. How it is done:
CDK6/Cyclin D3 ADP-Glo Kinase Assay
The purpose of the CDK6/Cyclin D3 assay is to evaluate the inhibition (% inhibition and IC50 values) in the presence of small molecule inhibitors by using a Luminescent based ADP-Glo assay. CDK6/Cyclin D3 catalyzes the production of ADP from ATP. ADP-Glo assay monitors ADP producing biochemical reactions. ADP-Glo is performed in 2 steps upon completion of kinase reaction: a combined termination of kinase reaction and depletion of remaining ATP in the first step, and conversion of generated ADP to […] and the newly produced ATP to light output using luciferase/luciferin reaction in the second step. The luminescent signal generated is proportional to the ADP concentration produced and is correlated with the kinase activity CDK6/Cyclin D3 was purchased from Carna. […] The assay was initiated with the addition of ATP-containing substrate solution, following a 30-minute pre-incubation of enzyme and inhibitor at room temperature in the reaction mixture. The reaction was stopped after 90 minutes at room temperature by the addition of 10 uL of ADP-GLO Reagent. After a 90-minute incubation, 20 uL of Kinase Detection Reagent was added. Samples were incubated for 40 minutes, after which plate well luminescence was measured on a Envision microplate reader. The IC50 determinations were made from a plot of the fractional velocity as a function of inhibitor concentration fit to the 4 parameters IC50 equation.
(In general: In ADP-Glo the light output rises with the ADP produced.)

A further assay deals with CDK4/Cyclin D1 (Homo sapiens (Human), UniProt P11802). Description: CDK4/Cyclin D1 CHEF Assay (AQT0258 peptide). The assay is classed as biochemical. Particulars: 200 uM ATP, read-out: CDK4/ CyclinD1 AQT IC50. The text has this: CDK4/Cyclin D1 CHEF Assay
Sequence of CDK4/Cyclin D1 (P11802 whole entry): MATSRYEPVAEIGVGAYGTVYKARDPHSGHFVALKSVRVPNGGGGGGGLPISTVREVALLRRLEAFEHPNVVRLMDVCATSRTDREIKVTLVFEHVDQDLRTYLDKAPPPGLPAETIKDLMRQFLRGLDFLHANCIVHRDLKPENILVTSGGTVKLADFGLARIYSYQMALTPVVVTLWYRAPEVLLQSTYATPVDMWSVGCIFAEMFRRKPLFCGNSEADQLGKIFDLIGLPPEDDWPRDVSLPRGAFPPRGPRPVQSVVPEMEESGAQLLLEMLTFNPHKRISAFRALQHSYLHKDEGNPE
Sequence of CDK4/Cyclin D1 (P24385 whole entry partner): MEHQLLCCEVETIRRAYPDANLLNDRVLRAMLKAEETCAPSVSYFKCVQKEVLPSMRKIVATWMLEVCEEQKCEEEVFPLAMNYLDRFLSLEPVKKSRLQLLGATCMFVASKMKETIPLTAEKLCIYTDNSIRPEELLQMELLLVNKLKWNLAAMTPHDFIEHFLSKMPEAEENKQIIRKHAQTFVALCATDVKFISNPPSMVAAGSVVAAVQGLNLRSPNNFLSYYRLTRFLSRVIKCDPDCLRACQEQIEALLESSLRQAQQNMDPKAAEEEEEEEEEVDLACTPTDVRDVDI
The purpose of CDK4/Cyclin D1 assay is to evaluate the inhibition (% inhibition and IC50 values) of small molecule inhibitors by using a Chelation-Enhance Fluorescence (CHEF) assay. In a CHEF assay, phosphorylation of a peptide substrate results in proportional increase in fluorescence. CHEF kinase assay use peptide substrates containing a synthetic alpha-amino acid with a side chain bearing an 8-hydroxyquinoline derivative (sulfonamido-oxide, Sox). Upon phosphorylation of a nearby serine, threonine or tyrosine and in the presence of Mg(II), the spectral properties of the Sox residue are altered, emitting 485 nm wavelength light when excited with a 360 nm wavelength light source. CDK4/Cyclin D1 catalyzes the phosphoryl transfer to the SOX-labeled substrate peptide AQT0258 from Assayquant Technologies. […] The reaction was initiated with the addition of substrate solution, following a 30-minute pre-incubation of enzyme and inhibitor at 22° C. in the reaction mix. Reactions were allowed to proceed for 3 hrs at 22° C., followed by fluorescence read of the reaction. The IC50 determinations were made from a plot of the fractional velocity as a function of inhibitor concentration fit to the 4 parameters IC50 equation.

For another assay, the system named is MCF-7 cells. Description: Cell Growth Inhibition, MCF-7 (CellTiterGlo, 6 days). The conditions noted are these: Homo sapiens, MCF7, 144 h, MCF-7, 6-day treatment. The assay is classed as cell-based.
Source text: as §1

Another assay concerns the target CDK1/Cyclin B1 (Homo sapiens (Human), UniProt P06493). Description: CDK1/Cyclin B1 ADP-Glo Kinase Assay. The assay is classed as biochemical. Particulars: ADP-Glo, 80 uM ATP; read-out: CDK1 Cyclin B1 IC50. The procedure:
CDK1/Cyclin B1 ADP-Glo Kinase Assay
(§2) The purpose of CDK1/Cyclin B1 assay is to evaluate the inhibition (% inhibition and IC50 values) of small molecule inhibitors by using a Luminescent based ADP-Glo assay. CDK1/Cyclin B1 catalyzes the production of ADP from ATP. ADP-Glo assay monitors ADP producing biochemical reactions. ADP-Glo is performed in 2 steps upon completion of kinase reaction: a combined termination of kinase reaction and depletion of remaining ATP in the first step, and conversion of generated ADP to ATP and the newly produced ATP to light output using luciferase/luciferin reaction in the second step. The luminescent signal generated is proportional to the ADP concentration produced and is correlated with the kinase activity. CDK1/Cyclin B1 was purchased from Carna (Cat 04-102). […] The assay was initiated with the addition of ATP-containing substrate solution, following a 30-minute pre-incubation of enzyme and inhibitor at room temperature in the reaction mixture. The reaction was stopped after 90 minutes at room temperature by the addition of 10 uL of ADP-GLO Reagent. After a 90 minute incubation, 20 uL of Kinase Detection Reagent was added. Samples were incubated for 40 minutes, after which plate well luminescence was measured on a Envision microplate reader. The IC50 determinations were made from a plot of the fractional velocity as a function of inhibitor concentration fit to the 4 parameters IC50 equation.

The target in a further assay is CDK2/Cyclin E1 (Homo sapiens (Human), UniProt P24941). Description: CDK2/Cyclin E1 Full length ADP-Glo Kinase Assay. Particulars: 20 uM ATP, read-out: CDK2/ CyclinE1 IC50. The assay is classed as biochemical. The procedure: CDK2/Cyclin E1 Full length ADP-Glo Kinase Assay
as §2, with “of CDK2/Cyclin E1” for “of CDK1/Cyclin B1”, “assay. CDK2/Cyclin E1 full length” for “assay. CDK1/Cyclin B1”, “activity. CDK2/Cyclin E1” for “activity. CDK1/Cyclin B1”, “from Eurofins” for “from Carna”, “(Cat 14-475M).” for “(Cat 04-102).”

Sequence of CDK1/Cyclin B1 (P06493 whole entry): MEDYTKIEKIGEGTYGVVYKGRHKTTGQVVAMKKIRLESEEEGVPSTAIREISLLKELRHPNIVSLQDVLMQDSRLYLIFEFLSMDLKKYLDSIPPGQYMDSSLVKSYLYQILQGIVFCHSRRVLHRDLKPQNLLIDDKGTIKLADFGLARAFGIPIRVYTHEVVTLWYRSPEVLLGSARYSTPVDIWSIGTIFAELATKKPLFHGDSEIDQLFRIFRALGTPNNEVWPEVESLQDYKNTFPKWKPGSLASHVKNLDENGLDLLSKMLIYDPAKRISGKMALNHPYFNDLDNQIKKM
Sequence of CDK1/Cyclin B1 (P14635 whole entry partner): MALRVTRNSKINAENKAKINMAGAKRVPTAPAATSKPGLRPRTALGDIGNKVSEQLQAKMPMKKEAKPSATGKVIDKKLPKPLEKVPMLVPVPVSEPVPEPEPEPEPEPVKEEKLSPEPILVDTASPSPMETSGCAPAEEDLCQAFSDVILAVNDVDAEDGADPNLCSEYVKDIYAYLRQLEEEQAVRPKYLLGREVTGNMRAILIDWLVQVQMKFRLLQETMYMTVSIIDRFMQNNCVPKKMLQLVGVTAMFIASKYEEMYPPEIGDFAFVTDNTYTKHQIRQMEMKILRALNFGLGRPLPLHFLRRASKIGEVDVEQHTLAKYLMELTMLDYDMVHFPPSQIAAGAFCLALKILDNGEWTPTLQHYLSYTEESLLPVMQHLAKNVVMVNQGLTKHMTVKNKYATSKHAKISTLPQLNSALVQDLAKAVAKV
Sequence of CDK6/Cyclin D3 (Q00534 whole entry): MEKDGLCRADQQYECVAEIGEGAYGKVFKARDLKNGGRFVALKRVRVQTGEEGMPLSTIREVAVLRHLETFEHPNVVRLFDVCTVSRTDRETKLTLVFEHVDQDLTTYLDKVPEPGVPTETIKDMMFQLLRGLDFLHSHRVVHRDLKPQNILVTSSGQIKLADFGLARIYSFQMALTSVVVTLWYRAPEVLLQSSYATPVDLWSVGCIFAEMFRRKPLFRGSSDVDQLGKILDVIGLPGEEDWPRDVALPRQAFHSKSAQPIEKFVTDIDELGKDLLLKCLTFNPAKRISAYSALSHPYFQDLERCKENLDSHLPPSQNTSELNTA
Sequence of CDK6/Cyclin D3 (P30281 whole entry partner): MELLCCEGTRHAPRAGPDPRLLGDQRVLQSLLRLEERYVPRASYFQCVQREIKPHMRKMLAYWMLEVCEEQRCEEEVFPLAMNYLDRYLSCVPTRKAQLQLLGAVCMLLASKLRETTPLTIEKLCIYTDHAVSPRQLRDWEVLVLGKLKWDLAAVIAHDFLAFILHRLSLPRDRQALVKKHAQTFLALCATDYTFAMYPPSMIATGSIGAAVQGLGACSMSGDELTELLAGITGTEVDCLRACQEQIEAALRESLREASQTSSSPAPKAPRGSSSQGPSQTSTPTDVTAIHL

Regarding `Cc1cc2cnc(Nc3ccc(N4CC5(CN(C)C5)C4)cc3)nc2c(N2CCC(C#N)(C3CC3)C2)n1` (stereo not drawn) [Compound 28, 3-cyclopropyl-1-(6-methyl-2-((4-(6-methyl-2,6-diazaspiro[3.3]heptan-2-yl)phenyl)amino)pyrido[3,4-d]pyrimidin-8-yl)pyrrolidine-3-carbonitrile], the IC50 is 500 to 2000 nM with OVCAR-3 cells; below 200 nM on CDK6/Cyclin D3; below 200 nM at CDK4/Cyclin D1; 500 to 2000 nM with MCF-7 cells; 500 to 2000 nM on CDK1/Cyclin B1; below 200 nM on CDK2/Cyclin E1.
With `Cc1cc2cnc(Nc3ccc4c(c3)CN(C3CN(S(C)(=O)=O)C3)C4)nc2c(N2CC3(CN(C)C3)C2)n1` [Compound 29, 6-methyl-8-(6-methyl-2,6-diazaspiro[3.3]heptan-2-yl)-N-(2-(1-(methylsulfonyl)azetidin-3-yl)isoindolin-5-yl)pyrido[3,4-d]pyrimidin-2-amine], the IC50 is above 2000 nM in the assay on OVCAR-3 cells; 500 to 2000 nM on CDK6/Cyclin D3; below 200 nM on CDK4/Cyclin D1; above 2000 nM with MCF-7 cells; above 2000 nM on CDK1/Cyclin B1; 200 to 500 nM at CDK2/Cyclin E1.
Consider `Cc1cc2cnc(Nc3ccc(N4CC5(CN(C)C5)C4)cc3)nc2c(N2CC3(C2)CS(=O)(=O)C3)n1` [Compound 30, 6-(6-methyl-2-((4-(6-methyl-2,6-diazaspiro[3.3]heptan-2-yl)phenyl)amino)pyrido[3,4-d]pyrimidin-8-yl)-2-thia-6-azaspiro[3.3]heptane 2,2-dioxide], for which the IC50 in the assay on OVCAR-3 cells was above 2000 nM; at CDK6/Cyclin D3, 200 to 500 nM; at CDK4/Cyclin D1 it was 200 to 500 nM; with MCF-7 cells, above 2000 nM; on CDK1/Cyclin B1 it was above 2000 nM; at CDK2/Cyclin E1, 200 to 500 nM.
In the case of `Cc1cc2cnc(Nc3cnn(C4CN(CC#N)C4)c3)nc2c(N2CC3(CN(C)C3)C2)n1` [Compound 31, 2-(3-(4-((6-methyl-8-(6-methyl-2,6-diazaspiro[3.3]heptan-2-yl)pyrido[3,4-d]pyrimidin-2-yl)amino)-1H-pyrazol-1-yl)azetidin-1-yl)acetonitrile], the IC50 in the assay with OVCAR-3 cells is above 2000 nM; at CDK6/Cyclin D3, above 2000 nM; at CDK4/Cyclin D1, above 2000 nM; in the assay on MCF-7 cells it was above 2000 nM; on CDK1/Cyclin B1, above 2000 nM; on CDK2/Cyclin E1, below 200 nM.
On to `Cc1cc2cnc(NC3CCN(S(=O)(=O)C4CC4)CC3)nc2c(N2CC3(CNC3)C2)n1` [Compound 32, N-(1-(cyclopropylsulfonyl)piperidin-4-yl)-6-methyl-8-(2,6-diazaspiro[3.3]heptan-2-yl)pyrido[3,4-d]pyrimidin-2-amine], for which the IC50 in the assay on OVCAR-3 cells was 500 to 2000 nM; at CDK6/Cyclin D3, below 200 nM; on CDK4/Cyclin D1, below 200 nM; in the assay with MCF-7 cells, 500 to 2000 nM; at CDK1/Cyclin B1, 500 to 2000 nM; at CDK2/Cyclin E1 it was below 200 nM.
`Cc1cc2cnc(Nc3cnn(C4CC5(C4)CN(C)C5)c3)nc2c(N2CCC3(C2)CC3(F)F)n1` (stereo not drawn) [Compound 33, 8-(1,1-difluoro-5-azaspiro[2.4]heptan-5-yl)-6-methyl-N-(1-(2-methyl-2-azaspiro[3.3]heptan-6-yl)-1H-pyrazol-4-yl)pyrido[3,4-d]pyrimidin-2-amine]: the IC50 in the assay on OVCAR-3 cells was 500 to 2000 nM; on CDK6/Cyclin D3, below 200 nM; on CDK4/Cyclin D1, below 200 nM; in the assay on MCF-7 cells, 500 to 2000 nM; on CDK1/Cyclin B1 it was 500 to 2000 nM; on CDK2/Cyclin E1, 200 to 500 nM.
With `Cc1cc2cnc(Nc3ccc(N4CC5(CN(C)C5)C4)cc3)nc2c(N2CCC3(C2)CC3(F)F)n1` (stereo not drawn) [Compound 34, 8-(1,1-difluoro-5-azaspiro[2.4]heptan-5-yl)-6-methyl-N-(4-(6-methyl-2,6-diazaspiro[3.3]heptan-2-yl)phenyl)pyrido[3,4-d]pyrimidin-2-amine], the IC50 in the assay on OVCAR-3 cells is 500 to 2000 nM; at CDK6/Cyclin D3 it was below 200 nM; on CDK4/Cyclin D1, below 200 nM; in the assay with MCF-7 cells it was 500 to 2000 nM; at CDK1/Cyclin B1, 500 to 2000 nM; on CDK2/Cyclin E1 it was below 200 nM.
As for `Cc1cc2cnc(Nc3ccc(N4CC5(CN(C)C5)C4)cc3)nc2c(N2CCC3(CCOCC3)C2)n1` [Compound 35, 6-methyl-N-(4-(6-methyl-2,6-diazaspiro[3.3]heptan-2-yl)phenyl)-8-(8-oxa-2-azaspiro[4.5]decan-2-yl)pyrido[3,4-d]pyrimidin-2-amine], the IC50 with OVCAR-3 cells is 500 to 2000 nM; at CDK6/Cyclin D3, below 200 nM; on CDK4/Cyclin D1, below 200 nM; in the assay with MCF-7 cells, 500 to 2000 nM; at CDK1/Cyclin B1 it was above 2000 nM; on CDK2/Cyclin E1, 200 to 500 nM.
For the compound `Cc1cc2cnc(Nc3cnn(CC4(N(C)C)CC4)c3)nc2c(N2CCC3(C2)CC3(F)F)n1` (stereo not drawn) [Compound 36, 8-(1,1-difluoro-5-azaspiro[2.4]heptan-5-yl)-N-(1-((1-(dimethylamino)cyclopropyl)methyl)-1H-pyrazol-4-yl)-6-methylpyrido[3,4-d]pyrimidin-2-amine], the IC50 was above 2000 nM in the assay on OVCAR-3 cells; 500 to 2000 nM on CDK6/Cyclin D3; 200 to 500 nM at CDK4/Cyclin D1; above 2000 nM in the assay with MCF-7 cells; above 2000 nM at CDK1/Cyclin B1; 200 to 500 nM at CDK2/Cyclin E1.
